IC50, EC50 and inhibition in vivo data for 13 compounds are collected here from ChEMBL document CHEMBL4033754, “Antiobesity Effect of a Short-Length Peptide YY Analogue after Continuous Administration in Mice” (ACS Med Chem Lett, 2017).

SMILES strings stand for the structures. Where a SMILES comes first, the peptide text is derived from it. [ ]: non-standard residue; d: D form. The star is where a group is joined. ξ: configuration not given here. Cha = N[C@@H](CC1CCCCC1)C(=O)O; ξCha = NC(CC1CCCCC1)C(=O)O; Isobutyryl = CC(C)C(=O)*; Aib = CC(C)(N)C(=O)O; Bz = O=C(c1ccccc1)*; ξAbu = CCC(N)C(=O)O

Assay [1] addresses T1, Neuropeptide Y receptor type 2 (Homo sapiens, UniProt P49146).
T1 sequence (P49146 whole entry): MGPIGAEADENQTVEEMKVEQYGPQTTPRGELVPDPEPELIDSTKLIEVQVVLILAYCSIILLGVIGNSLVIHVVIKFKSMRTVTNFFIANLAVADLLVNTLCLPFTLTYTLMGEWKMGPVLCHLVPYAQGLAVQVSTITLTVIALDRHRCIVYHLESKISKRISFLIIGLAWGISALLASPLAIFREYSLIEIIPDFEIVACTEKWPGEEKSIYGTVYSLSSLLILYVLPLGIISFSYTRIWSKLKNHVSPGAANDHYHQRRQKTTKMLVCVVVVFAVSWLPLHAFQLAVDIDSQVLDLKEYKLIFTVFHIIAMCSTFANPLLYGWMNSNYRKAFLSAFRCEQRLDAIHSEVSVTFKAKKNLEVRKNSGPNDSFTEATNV
The assay can be described thus: Displacement of [125I]-PYY from human Y2R expressed in CHO cell membranes after 60 mins by liquid scintillation method.

Assay [2] concerns the target T1, Neuropeptide Y receptor type 2. The assay can be described thus: Agonist activity at human Y2R expressed in CHO cell membranes assessed as [35S]GTPgammaS binding after 120 mins by liquid scintillation method. It is filed as functional.
The next assay concerns Mus musculus. As to the kind of experiment: Antiobesity activity in lean C57BL/6J mouse assessed as inhibition of food intake at 1 mg/kg administered via subcutaneous osmotic pumps for 3 continuous days relative to control. The following applies: sc.

In assay [1], `CC(=O)N[C@@H](CO)C(=O)NC(C)(C)C(=O)N[C@@H](CCCNC(=N)N)C(=O)N[C@@H](Cc1cnc[nH]1)C(=O)NC(CC1CCCCC1)C(=O)NC(CC1CCCCC1)C(=O)N[C@@H](CC(N)=O)C(=O)N[C@@H](CC(C)C)C(=O)NC(C)(C)C(=O)N[C@H](C(=O)N[C@@H](CCCNC(=N)N)C(=O)N[C@@H](CCC(N)=O)C(=O)N[C@@H](CCCNC(=N)N)C(=O)NC(CC1CCCCC1)C(N)=O)[C@@H](C)O` (some centres not stated) (Ac-S[Aib]RH[ξCha][ξCha]NL[Aib]TRQR[ξCha]-NH2) yielded an IC50 of 2 nM. Moreover, the concentration for a half-maximal effect (EC50) in assay [2] was 0.55 nM. Further, the inhibition in vivo at 1 mg/kg in the assay on Mus musculus was determined as 51%.

Consider `CC(=O)N[C@@H](CO)C(=O)N(C)[C@@H](C)C(=O)N[C@@H](CCCNC(=N)N)C(=O)N[C@@H](Cc1cnc[nH]1)C(=O)NC(CC1CCCCC1)C(=O)NC(CC1CCCCC1)C(=O)N[C@@H](CC(N)=O)C(=O)N[C@@H](CC(C)C)C(=O)NC(C)(C)C(=O)N[C@H](C(=O)N[C@@H](CCCNC(=N)N)C(=O)N[C@@H](CCC(N)=O)C(=O)N[C@@H](CCCNC(=N)N)C(=O)NC(CC1CCCCC1)C(N)=O)[C@@H](C)O` (some centres not stated), for which, in assay [1], the IC50 stood at 5.4 nM. In assay [2], the EC50 was determined as 1.2 nM.

For `CCC(NC(=O)[C@H](CCCNC(=N)N)NC(=O)C(C)C)C(=O)NC(CC1CCCCC1)C(=O)NC(CC1CCCCC1)C(=O)N[C@@H](CC(N)=O)C(=O)N[C@@H](CC(C)C)C(=O)NC(C)(C)C(=O)N[C@H](C(=O)N[C@@H](CCCNC(=N)N)C(=O)N[C@@H](CCC(N)=O)C(=O)N[C@@H](CCCNC(=N)N)C(=O)NC(CC1CCCCC1)C(N)=O)[C@@H](C)O` (some centres not stated) (Isobutyryl-R[ξAbu][ξCha][ξCha]NL[Aib]TRQR[ξCha]-NH2), the concentration for half-maximal inhibition (IC50) in assay [1] is 7.3 nM. Besides, the EC50 in assay [2] amounted to 4.2 nM.

Consider `CCC(NC(=O)[C@H](CCCNC(=N)N)NC(=O)[C@H](CC(C)C)NC(=O)[C@@H](CO)NC(C)=O)C(=O)NC(CC1CCCCC1)C(=O)NC(CC1CCCCC1)C(=O)N[C@@H](CC(N)=O)C(=O)N[C@@H](CC(C)C)C(=O)NC(C)(C)C(=O)N[C@H](C(=O)N[C@@H](CCCNC(=N)N)C(=O)N[C@@H](CCC(N)=O)C(=O)N[C@@H](CCCNC(=N)N)C(=O)NC(CC1CCCCC1)C(N)=O)[C@@H](C)O` (some centres not stated), for which the 50% inhibitory concentration (IC50) in assay [1] was 12 nM. Besides, the EC50 in assay [2] was 5.5 nM.

In turn, `CCC(NC(=O)[C@H](CCCNC(=N)N)NC(=O)[C@@H](CC(C)C)NC(=O)[C@@H](CO)NC(C)=O)C(=O)NC(CC1CCCCC1)C(=O)NC(CC1CCCCC1)C(=O)N[C@@H](CC(N)=O)C(=O)N[C@@H](CC(C)C)C(=O)NC(C)(C)C(=O)N[C@H](C(=O)N[C@@H](CCCNC(=N)N)C(=O)N[C@@H](CCC(N)=O)C(=O)N[C@@H](CCCNC(=N)N)C(=O)NC(CC1CCCCC1)C(N)=O)[C@@H](C)O` (some centres not stated) yielded an IC50 in assay [1] of 23 nM. In addition, in assay [2], the 50% effective concentration (EC50) stood at 3.8 nM.

In turn, `CC(C)C[C@H](NC(=O)[C@H](CO)NC(=O)[C@H](C)N)C(=O)N[C@@H](CCCNC(=N)N)C(=O)N[C@@H](Cc1cnc[nH]1)C(=O)N[C@@H](CC1CCCCC1)C(=O)N[C@@H](CC1CCCCC1)C(=O)N[C@@H](CC(N)=O)C(=O)N[C@@H](CC(C)C)C(=O)NC(C)(C)C(=O)N[C@H](C(=O)N[C@@H](CCCNC(=N)N)C(=O)N[C@@H](CCC(N)=O)C(=O)N[C@@H](CCCNC(=N)N)C(=O)N[C@@H](CC1CCCCC1)C(N)=O)[C@@H](C)O` (H-ASLRH[Cha][Cha]NL[Aib]TRQR[Cha]-NH2) yielded an IC50 in assay [1] of 1.7 nM. The concentration giving a half-maximal response (EC50) in assay [2] worked out at 0.74 nM.

On to `CCC(NC(=O)[C@H](CCCNC(=N)N)NC(=O)[C@H](CC(C)C)NC(=O)[C@H](CO)NC(=O)[C@H](C)N)C(=O)NC(CC1CCCCC1)C(=O)NC(CC1CCCCC1)C(=O)N[C@@H](CC(N)=O)C(=O)N[C@@H](CC(C)C)C(=O)NC(C)(C)C(=O)N[C@H](C(=O)N[C@@H](CCCNC(=N)N)C(=O)N[C@@H](CCC(N)=O)C(=O)N[C@@H](CCCNC(=N)N)C(=O)NC(CC1CCCCC1)C(N)=O)[C@@H](C)O` (some centres not stated) (H-ASLR[ξAbu][ξCha][ξCha]NL[Aib]TRQR[ξCha]-NH2), for which the IC50 in assay [1] came to 2.7 nM. Moreover, the concentration giving a half-maximal response (EC50) in assay [2] is 2.5 nM.

`CCC(NC(=O)[C@H](CCCNC(=N)N)NC(=O)[C@H](CC(C)C)NC(=O)[C@H](CO)NC(C)=O)C(=O)NC(CC1CCCCC1)C(=O)NC(CC1CCCCC1)C(=O)N[C@@H](CC(N)=O)C(=O)N[C@@H](CC(C)C)C(=O)NC(C)(C)C(=O)N[C@H](C(=O)N[C@@H](CCCNC(=N)N)C(=O)N[C@@H](CCC(N)=O)C(=O)N[C@@H](CCCNC(=N)N)C(=O)NC(CC1CCCCC1)C(N)=O)[C@@H](C)O` (some centres not stated) had a concentration for half-maximal inhibition (IC50) in assay [1] of 8.8 nM. Moreover, the EC50 in assay [2] was 3 nM.

On to `CC(=O)N[C@@H](CO)C(=O)NCC(=O)N[C@@H](CCCNC(=N)N)C(=O)N[C@@H](Cc1cnc[nH]1)C(=O)NC(CC1CCCCC1)C(=O)NC(CC1CCCCC1)C(=O)N[C@@H](CC(N)=O)C(=O)N[C@@H](CC(C)C)C(=O)NC(C)(C)C(=O)N[C@H](C(=O)N[C@@H](CCCNC(=N)N)C(=O)N[C@@H](CCC(N)=O)C(=O)N[C@@H](CCCNC(=N)N)C(=O)NC(CC1CCCCC1)C(N)=O)[C@@H](C)O` (some centres not stated) (Ac-SGRH[ξCha][ξCha]NL[Aib]TRQR[ξCha]-NH2), for which the concentration for half-maximal inhibition (IC50) in assay [1] is 4.8 nM. The half-maximal effective concentration (EC50) in assay [2] amounted to 1.3 nM.

For the compound `CCC(NC(=O)[C@H](CCCNC(=N)N)NC(=O)[C@@H](CC(C)C)NC(=O)[C@H](CO)NC(C)=O)C(=O)NC(CC1CCCCC1)C(=O)NC(CC1CCCCC1)C(=O)N[C@@H](CC(N)=O)C(=O)N[C@@H](CC(C)C)C(=O)NC(C)(C)C(=O)N[C@H](C(=O)N[C@@H](CCCNC(=N)N)C(=O)N[C@@H](CCC(N)=O)C(=O)N[C@@H](CCCNC(=N)N)C(=O)NC(CC1CCCCC1)C(N)=O)[C@@H](C)O` (some centres not stated), the half-inhibitory concentration (IC50) in assay [1] worked out at 11 nM. Moreover, the EC50 in assay [2] was 1.3 nM.

`CCC(NC(=O)[C@H](CCCNC(=N)N)NC(=O)[C@H](CC(C)C)NC(C)=O)C(=O)NC(CC1CCCCC1)C(=O)NC(CC1CCCCC1)C(=O)N[C@@H](CC(N)=O)C(=O)N[C@@H](CC(C)C)C(=O)NC(C)(C)C(=O)N[C@H](C(=O)N[C@@H](CCCNC(=N)N)C(=O)N[C@@H](CCC(N)=O)C(=O)N[C@@H](CCCNC(=N)N)C(=O)NC(CC1CCCCC1)C(N)=O)[C@@H](C)O` (some centres not stated) (Ac-LR[ξAbu][ξCha][ξCha]NL[Aib]TRQR[ξCha]-NH2) yielded a half-inhibitory concentration (IC50) in assay [1] of 17 nM. For the same compound, the concentration giving a half-maximal response (EC50) in assay [2] was 6.4 nM.

In assay [1], `CCC(NC(=O)[C@H](CCCNC(=N)N)NC(=O)c1ccccc1)C(=O)NC(CC1CCCCC1)C(=O)NC(CC1CCCCC1)C(=O)N[C@@H](CC(N)=O)C(=O)N[C@@H](CC(C)C)C(=O)NC(C)(C)C(=O)N[C@H](C(=O)N[C@@H](CCCNC(=N)N)C(=O)N[C@@H](CCC(N)=O)C(=O)N[C@@H](CCCNC(=N)N)C(=O)NC(CC1CCCCC1)C(N)=O)[C@@H](C)O` (some centres not stated) (Bz-R[ξAbu][ξCha][ξCha]NL[Aib]TRQR[ξCha]-NH2) had an IC50 of 5.7 nM. The concentration for a half-maximal effect (EC50) in assay [2] was found to be 4.6 nM.

In assay [1], `CCC(NC(=O)[C@H](CCCNC(=N)N)NC(=O)[C@H](CC(C)C)NC(=O)[C@H](CO)NC(=O)[C@H](C)NC(C)=O)C(=O)NC(CC1CCCCC1)C(=O)NC(CC1CCCCC1)C(=O)N[C@@H](CC(N)=O)C(=O)N[C@@H](CC(C)C)C(=O)NC(C)(C)C(=O)N[C@H](C(=O)N[C@@H](CCCNC(=N)N)C(=O)N[C@@H](CCC(N)=O)C(=O)N[C@@H](CCCNC(=N)N)C(=O)NC(CC1CCCCC1)C(N)=O)[C@@H](C)O` (some centres not stated) (Ac-ASLR[ξAbu][ξCha][ξCha]NL[Aib]TRQR[ξCha]-NH2) registered a 50% inhibitory concentration (IC50) of 6.8 nM. In addition, in assay [2], the EC50 was 4.6 nM.
